The molecules below were run on ABCA1 mRNA (assay: ABCA1 mRNA induction in THP-1 cells, QuantiGene branched DNA assay). Conditions: 10 μM test compound, 18-20 hours.
Format: cell-based
Description: Modulation of expression of ABCA1 mRNA levels by the compounds of the invention was determined in the following assays.
Induction of ABC1 in THP-1 cells, was measured using QuantiGene® branched DNA assay as per manufacturer's instructions. Cultures of THP-1 were grown to subconfluence in DMEM/10% FBS before replacement with DMEM/BSA and 10 and 3 μM concentrations of the test compounds in DMSO for 18-20 hours. After treatment of cells with compounds, the cells were lysed with lysis buffer at 37° C. for 20 minutes. The cell lysate and ABCA1 specific probe (Genospectra, Inc., Fremont, Calif.) mix were added to the 96 well capture plate and hybridized at 53° C. for 16-18 hours. The signal was amplified using the amplifier and label probes provided with the QuantiGene® assay followed by addition of a luminescent alkaline phosphatase substrate, dioxitane. Luminescence was quantified in Victor V plate reader.
Step 1 • Cells are lysed to release mRNA in the presence of target probes. Target mRNA from lysed cells was then captured by hybridization and transferred to the Capture Plate.
Step 2 • Signal amplification was performed by hybridization of the bDNA Amplifier and Label Probe.
Step 3 • Addition of chemiluminescence substrate yielded a QuantiGene® signal proportional to the amount of mRNA present in the sample.
Table 1 presents the relative fold increase in ABCA1 expression over DMSO for various compounds of the invention when tested at a concentration of […].

Row | SMILES | ABCA1 Induction Fold Increase over DMSO Vehicle [FOLD INCREASE]
1 | COc1cccc2c1OCC1C2Nc2ccc(C(O)(C(F)(F)F)C(F)(F)F)cc2C1(C)C (stereo not shown) [Number 33, 1,1,1,3,3,3-hexafluoro-2-(4-methoxy-7,7-dimethyl(7,12,12a,6a-tetrahydrochromano[4,3-b]quinolin-9-yl))propan-2-ol] | 6.4
2 | COc1cccc2c1C1Nc3ccc(C(C)=O)cc3C(C)(C)C1CO2 (stereo not shown) [Number 43, 1-(1-methoxy-7,7-dimethyl-7,12,12a,6a-tetrahydrochromano[4,3-b]quinolin-9-yl)ethan-1-one] | 4.1
3 | CC1(C)c2cc(C(O)(C(F)(F)F)C(F)(F)F)ccc2NC2c3cc(OC(F)(F)F)ccc3OCC21 (stereo not shown) [Number 8, 2-[7,7-dimethyl-2-(trifluoromethoxy)(7,12,12a,6a-tetrahydrochromano[4,3-b]quinolin-9-yl)]-1,1,1,3,3,3-hexafluoropropan-2-ol] | 3.0
4 | COc1cccc2c1C1Nc3ccc(-c4nncn4C)cc3C(C)(C)C1CO2 (stereo not shown) [Number 74, 1-methoxy-7,7-dimethyl-9-(4-methyl(1,2,4-triazol-3-yl))-7,12,12a,6a-tetrahydrochromano[4,3-b]quinoline] | 7.9
5 | COc1cccc2c1[C@H]1Nc3ccc(F)cc3C(C)(C)[C@H]1CO2 [Number 55, (12aS,6aR)-9-fluoro-1-methoxy-7,7-dimethyl-7,12,12a,6a-tetrahydrochromano[4,3-b]quinoline] | 2.5
6 | CC1(C)c2cc(-c3nc(C(=O)N4CCS(=O)(=O)CC4)co3)ccc2N[C@@H]2c3c(F)cccc3OC[C@@H]21 [Number 143, 2-((6aR,12aS)-1-fluoro-6a,7,12,12a-tetrahydro-7,7-dimethyl-6H-chromeno[4,3-b]quinolin-9-yl)oxazole-(4-(1,1-dione-1,4-thiazaperhydroin-yl)methanone)] | 6.1
7 | COc1cccc2c1[C@H]1Nc3ccc(C(=O)N4CCN(C(=O)OC(C)(C)C)CC4)cc3C(C)(C)[C@H]1CO2 [Number 125, ((6aR,12aS)-6a,7,12,12a-tetrahydro-1-methoxy-7,7-dimethyl-6H-chromeno[4,3-b]quinolin-9-yl)(4-tert-butyl-carboxylate-piperazin-1-yl)methanone] | 4.1
8 | COc1cccc2c1OC[C@@H]1[C@@H]2Nc2ccc(C(=O)N3CCS(=O)(=O)CC3)cc2C1(C)C [Number 128, ((6aS,12aS)-6a,7,12,12a-tetrahydro-4-methoxy-7,7-dimethyl-6H-chromeno[4,3-b]quinolin-9-yl)(1,1-dione-1,4-thiazaperhydroin-yl)methanone] | 2.7
9 | COc1cccc2c1[C@H]1Nc3ccc(-c4cc[nH]n4)cc3C(C)(C)[C@H]1CO2 [Number 111, (12aS,6aR)-1-methoxy-7,7-dimethyl-9-pyrazol-3-yl-7,12,12a,6a-tetrahydrochromano[4,3-b]quinoline] | 4.7
10 | CCOc1cccc2c1OCC1C2Nc2ccc(C(F)(F)F)cc2C1(C)C (stereo not shown) [Number 41, 4-ethoxy-7,7-dimethyl-9-(trifluoromethyl)-7,12,12a,6a-tetrahydrochromano[4,3-b]quinoline] | 2.1
11 | COc1cccc2c1[C@H]1Nc3ccc(OC(F)(F)F)cc3C(C)(C)[C@H]1CO2 [Number 57, ((12aS,6aR)-1-methoxy-7,7-dimethyl(7,12,12a,6a-tetrahydrochromano[4,3-b]quinolin-9-yloxy))trifluoromethane] | 6.1
12 | CC(C)=CCOc1cccc2c1OCC1C2Nc2ccc(C(O)(C(F)(F)F)C(F)(F)F)cc2C1(C)C (stereo not shown) [Number 25, 2-[7,7-dimethyl-4-(3-methylbut-2-enyloxy)(7,12,12a,6a-tetrahydrochromano[4,3-b]quinolin-9-yl)]-1,1,1,3,3,3-hexafluoropropan-2-ol] | 4.0
13 | COc1cccc2c1[C@H]1Nc3ccc(C(C)C)cc3C(C)(C)[C@H]1CO2 [Number 54, (12aS,6aR)-1-methoxy-7,7-dimethyl-9-(methylethyl)-7,12,12a,6a-tetrahydrochromano[4,3-b]quinoline] | 4.3
14 | CCS(=O)(=O)N1CCN(C(=O)c2coc(-c3ccc4c(c3)C(C)(C)[C@H]3COc5cccc(F)c5[C@H]3N4)n2)CC1 [Number 142, 2-((6aR,12aS)-1-fluoro-6a,7,12,12a-tetrahydro-7,7-dimethyl-6H-chromeno[4,3-b]quinolin-9-yl)oxazole-(4-(4-ethanesulfonylpiperazin-1-yl)methanone)] | 5
15 | CCOc1cccc2c1OCC1C2Nc2ccc(C(O)(C(F)(F)F)C(F)(F)F)cc2C1(C)C (stereo not shown) [Number 22, 2-(4-ethoxy-7,7-dimethyl(7,12,12a,6a-tetrahydrochromano[4,3-b]quinolin-9-yl))-1,1,1,3,3,3-hexafluoropropan-2-ol] | 4.8
16 | CC1(C)c2cc(C(O)(C(F)(F)F)C(F)(F)F)ccc2NC2c3cccc(F)c3OCC21 (stereo not shown) [Number 51, 1,1,1,3,3,3-hexafluoro-2-(4-fluoro-7,7-dimethyl(7,12,12a,6a-tetrahydrochromano[4,3-b]quinolin-9-yl))propan-2-ol] | 7.8
17 | C#Cc1ccc2c(c1)C(C)(C)[C@H]1COc3cccc(OC)c3[C@H]1N2 [Number 95, (12aS,6aR)-9-ethynyl-1-methoxy-7,7-dimethyl-7,12,12a,6a-tetrahydrochromano[4,3-b]quinoline] | 4.3
18 | COc1ccc(Br)c2c1OCC1C2Nc2ccc(C(C)=O)cc2C1(C)C (stereo not shown) [Number 80, 1-(1-bromo-4-methoxy-7,7-dimethyl-7,12,12a,6a-tetrahydrochromano[4,3-b]quinolin-9-yl)ethan-1-one] | 4.3
19 | COc1cccc2c1OC[C@H]1[C@@H]2Nc2ccc(Br)cc2C1(C)C [Number 86, (12aS,6aR)-9-bromo-4-methoxy-7,7-dimethyl-7,12,12a,6a-tetrahydrochromano[4,3-b]quinoline] | 8.4
20 | COc1cccc2c1C1Nc3ccc(C(F)(F)F)cc3C(C)(C)C1CO2 (stereo not shown) [Number 44, 1-methoxy-7,7-dimethyl-9-(trifluoromethyl)-7,12,12a,6a-tetrahydrochromano[4,3-b]quinoline] | 2.2
21 | COc1cc(Br)cc2c1OC[C@@H]1[C@H]2Nc2ccc(C(O)(C(F)(F)F)C(F)(F)F)cc2C1(C)C [Number 65, 2-((6aS,12aR)-2-bromo-4-methoxy-7,7-dimethyl(7,12,12a,6a-tetrahydrochromano[4,3-b]quinolin-9-yl))-1,1,1,3,3,3-hexafluoropropan-2-ol] | 3.2

Same assay, conditions: Homo sapiens, 10 μM test compound, 18-20 hours, read-out: ABCA1 Induction Fold Increase over DMSO Vehicle

Row | SMILES | fold induction at 10 µM
22 | COc1ccccc1-c1ccc2c(c1)C(C)(C)C1=C(c3cccc(F)c3OC1)N2O [Number 104, 4-fluoro-9-(2-methoxyphenyl)-7,7-dimethyl-7,12-dihydro-6H-chromeno[4,3-b]quinolin-12-ol] | 2.9
23 | COC(=O)CCN1c2ccccc2C(C)(C)[C@H]2COc3cccc(OC)c3[C@@H]21 [Number 171, methyl 3-((6aR,12aR)-6a,7-dihydro-1-methoxy-7,7-dimethyl-6H-chromeno[4,3-b]quinolin-12(12aH)-yl)propanoate] | 2.2
24 | COc1cccc2c1[C@@H]1[C@H](CO2)C(C)(C)c2ccccc2N1C1CCCCC1 [Number 166, (6aR,12aS)-12-cyclohexyl-6a,7,12,12a-tetrahydro-1-methoxy-7,7-dimethyl-6H-chromeno[4,3-b]quinoline] | 12.5
25 | CN(C)C(=O)CCc1ccc2c(c1)C1Nc3ccc(C(O)(C(F)(F)F)C(F)(F)F)cc3C(C)(C)C1CO2 (stereo not shown) [Number 39, 3-{7,7-dimethyl-9-[2,2,2-trifluoro-1-hydroxy-1-(trifluoromethyl)ethyl](7,12,12a,6a-tetrahydrochromano[4,3-b]quinolin-2-yl)}-N,N-dimethylpropanamide] | 3.4
26 | COc1cc(Br)cc2c1OC[C@H]1[C@@H]2Nc2ccc(-c3nnn[nH]3)cc2C1(C)C [Number 164, (6aR,12aS)-2-bromo-6a,7,12,12a-tetrahydro-4-methoxy-7,7-dimethyl-9-(1H-tetrazol-5-yl)-6H-chromeno[4,3-b]quinoline] | 5.6
27 | COc1cccc2c1[C@H]1Nc3ccc(-n4ncc(C(=O)O)c4C)cc3C(C)(C)[C@H]1CO2 [Number 118, 1-((6aR,12aS)-6a,7,12,12a-tetrahydro-1-methoxy-7,7-dimethyl-6H-chromeno[4,3-b]quinolin-9-yl)-5-methyl-1H-pyrazole-4-carboxylic acid] | 4
28 | COc1cccc2c1[C@H]1Nc3ccc(C(=O)N4CCNCC4)cc3C(C)(C)[C@H]1CO2 [Number 127, ((6aR,12aS)-6a,7,12,12a-tetrahydro-1-methoxy-7,7-dimethyl-6H-chromeno[4,3-b]quinolin-9-yl)(piperazin-1-yl)methanone] | 5.1

Source: patent US7432276B2, “ABCA1 elevating compounds” (CV Therapeutics, Inc., priority 2005, dated 2008)
